Reference: ChEMBL document CHEMBL4476877, “Treatment of COPD, gastro-esophageal reflux disease (GERD), food allergies and other gastrointestinal conditions and disorders ameliorated by proper histamine management using a combination of histidine decarboxylase inhibitors, LRA drugs, anti-H1 and/or anti-H2 drugs” (2012)
Where “and” joins values, the source holds several entries; their conditions need not be identical. Identical values can stand only once. Calls of active or inactive are those of the source. No cut-off for these calls is given here.

Legend:
[1] = test system: Homo sapiens; assay: Prevention of food allergy in pediatric patient with history of anaphylaxis due to nut allergy assessed as reduction in allergic reactions at 200 mg dosed daily for 6 months co-administered with 10 mg Montelukast dosed daily; type: functional, organism-based
[2] = test system: Homo sapiens; assay: Improvement in disease symptoms in GERD patient assessed as reduction in regurgitation at 200 mg dosed daily; type: functional, organism-based
[3] = test system: Homo sapiens; assay: Prevention of food allergy in patient with history of anaphylaxis due to allergens assessed as reduction in allergy symptoms at 200 mg dosed daily for 6 to 8 weeks co-administered with 10 mg Montelukast dosed daily; type: functional, organism-based
[4] = test system: Homo sapiens; assay: Prevention of food allergy in pediatric patient with history of anaphylaxis due to nut allergy assessed as reduction in diarrhea at 200 mg dosed daily for 6 months co-administered with 10 mg Montelukast dosed daily; type: functional, organism-based
[5] = test system: Homo sapiens; assay: Prevention of food allergy in pediatric patient with history of anaphylaxis due to nut allergy assessed as reduction in constipation at 200 mg dosed daily for 6 months co-administered with 10 mg Montelukast dosed daily; type: functional, organism-based
[6] = test system: Homo sapiens; assay: Improvement in disease symptoms in GERD patient assessed as reduction in regurgitation at 200 mg dosed daily co-treated with 10 mg anti-H1 drug loratadine dosed daily and 150 mg anti-H2 drug Ranitidine dosed daily; type: functional, organism-based
[7] = test system: Homo sapiens; assay: Prevention of food allergy in pediatric patient with history of anaphylaxis due to nut allergy assessed as reduction in allergic symptoms at 200 mg dosed daily over 8 months co-administered with 10 mg Montelukast dosed daily; type: functional, organism-based
[8] = test system: Homo sapiens; assay: Prevention of food allergy in pediatric patient with history of anaphylaxis due to nut allergy assessed as reduction in stomach pain at 200 mg dosed daily for 6 months co-administered with 10 mg Montelukast dosed daily; type: functional, organism-based
[9] = test system: Homo sapiens; assay: Improvement in disease symptoms in GERD patient assessed as reduction in heartburns at 200 mg dosed daily; type: functional, organism-based
[10] = test system: Homo sapiens; assay: Improvement in disease symptoms in GERD patient assessed as improvement in global disease scores at 200 mg dosed daily; type: functional, organism-based
[11] = test system: Homo sapiens; assay: Improvement in disease symptoms in GERD patient assessed as reduction in cough at 200 mg dosed daily co-treated with 10 mg anti-H1 drug loratadine dosed daily and 150 mg anti-H2 drug Ranitidine dosed daily; type: functional, organism-based
[12] = test system: Homo sapiens; assay: Improvement in disease symptoms in GERD patient assessed as reduction in regurgitation at 200 mg dosed daily co-treated with 10 mg anti-H1 drug loratadine dosed daily; type: functional, organism-based
[13] = biological target: T1, Histidine decarboxylase (Homo sapiens) (UniProt P19113); assay: Inhibition of recombinant human HDC (1 to 512 residues) expressed in Escherichia coli BL21 (DE3) pLysS assessed as reduction in [14C]CO2 production from L-[U-14C]histidine at 10 uM relative to untreated control
T1 sequence (whole entry): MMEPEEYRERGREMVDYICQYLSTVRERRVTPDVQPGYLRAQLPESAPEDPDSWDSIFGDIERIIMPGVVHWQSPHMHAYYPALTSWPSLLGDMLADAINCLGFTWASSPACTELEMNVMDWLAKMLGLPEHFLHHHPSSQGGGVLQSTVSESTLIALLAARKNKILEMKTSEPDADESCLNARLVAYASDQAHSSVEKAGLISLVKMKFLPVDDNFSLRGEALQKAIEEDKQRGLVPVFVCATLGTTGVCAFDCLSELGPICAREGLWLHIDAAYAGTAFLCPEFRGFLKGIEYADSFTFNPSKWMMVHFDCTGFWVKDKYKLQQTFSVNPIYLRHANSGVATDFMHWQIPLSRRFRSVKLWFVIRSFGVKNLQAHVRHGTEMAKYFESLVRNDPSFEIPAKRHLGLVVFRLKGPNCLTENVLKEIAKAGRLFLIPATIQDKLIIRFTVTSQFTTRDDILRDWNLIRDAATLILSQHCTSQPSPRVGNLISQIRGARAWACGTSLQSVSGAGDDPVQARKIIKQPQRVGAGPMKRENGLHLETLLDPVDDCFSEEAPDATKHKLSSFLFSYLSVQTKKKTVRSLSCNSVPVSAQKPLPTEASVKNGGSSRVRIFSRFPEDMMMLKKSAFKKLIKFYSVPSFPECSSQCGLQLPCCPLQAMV

[14] = test system: Homo sapiens; assay: Prevention of food allergy in patient with history of anaphylaxis due to allergens assessed as reduction in allergy symptoms to pea nut ingestion at 200 mg dosed daily for 8 months co-administered with 10 mg Montelukast dosed daily; type: functional, organism-based
[15] = test system: Homo sapiens; assay: Prevention of food allergy in patient with history of anaphylaxis due to ingestion of shrimps assessed as reduction in allergy symptoms at 200 mg dosed daily for 6 weeks co-administered with 10 mg Montelukast dosed daily; type: functional, organism-based
[16] = test system: Homo sapiens; assay: Improvement in disease symptoms in GERD patient assessed as reduction in regurgitation at 200 mg dosed daily co-treated with 150 mg anti-H2 drug Ranitidine dosed daily; type: functional, organism-based
[17] = test system: Homo sapiens; assay: Prevention of food allergy in pediatric patient with history of anaphylaxis due to nut allergy assessed as reduction in digestive symptoms at 200 mg dosed daily over 8 months co-administered with 10 mg Montelukast dosed daily; type: functional, organism-based
[18] = test system: Homo sapiens; assay: Prevention of food allergy in pediatric patient with history of anaphylaxis due to nut allergy assessed as reduction in allergic reactions at 200 mg dosed daily for 6 weeks co-administered with 10 mg Montelukast dosed daily; type: functional, organism-based
[19] = test system: Homo sapiens; assay: Improvement in disease symptoms in GERD patient assessed as improvement in global disease scores at 200 mg dosed daily co-treated 150 mg anti-H2 drug Ranitidine dosed daily; type: functional, organism-based
[20] = test system: Homo sapiens; assay: Improvement in disease symptoms in GERD patient assessed as improvement in global disease scores at 200 mg dosed daily co-treated with 10 mg anti-H1 drug loratadine dosed daily and 150 mg anti-H2 drug Ranitidine dosed daily; type: functional, organism-based
[21] = test system: Homo sapiens; assay: Improvement in disease symptoms in GERD patient assessed as reduction in heartburns at 200 mg dosed daily co-treated with 10 mg anti-H1 drug loratadine dosed daily and 150 mg anti-H2 drug Ranitidine dosed daily; type: functional, organism-based
[22] = test system: Homo sapiens; assay: Improvement in disease symptoms in GERD patient assessed as reduction in cough at 200 mg dosed daily co-treated with 10 mg anti-H1 drug loratadine dosed daily; type: functional, organism-based
[23] = test system: Homo sapiens; assay: Improvement in disease symptoms in GERD patient assessed as reduction in heartburns at 200 mg dosed daily co-treated with 150 mg anti-H2 drug Ranitidine dosed daily; type: functional, organism-based
[24] = test system: Homo sapiens; assay: Improvement in disease symptoms in GERD patient assessed as improvement in global disease scores at 200 mg dosed daily co-treated with 10 mg anti-H1 drug loratadine dosed daily; type: functional, organism-based
[25] = test system: Homo sapiens; assay: Improvement in disease symptoms in GERD patient assessed as reduction in cough at 200 mg dosed daily co-treated with 150 mg anti-H2 drug Ranitidine dosed daily; type: functional, organism-based
[26] = test system: Homo sapiens; assay: Improvement in disease symptoms in GERD patient assessed as reduction in cough at 200 mg dosed daily; type: functional, organism-based
[27] = test system: Homo sapiens; assay: Improvement in disease symptoms in GERD patient assessed as reduction in heartburns at 200 mg dosed daily co-treated with 10 mg anti-H1 drug loratadine dosed daily; type: functional, organism-based

## CCOc1c(N)c2c(c(OCC)c1OCC)C(C1c3c(cc4c(c3OC)OCO4)CCN1C)OC2=O (configuration not stated)
[1]
  Activity: Active
[2]
  Activity: inactive
[3]
  Activity: Active
[4]
  Activity: Active
[5]
  Activity: Active
[6]
  Activity: Active
[7]
  Activity: Active
[8]
  Activity: Active
[9]
  Activity: inactive
[10]
  Activity: inactive
[11]
  Activity: Active
[12]
  Activity: Active
[13]
  inhibition: 36.5% and 27.9%
[14]
  Activity: Active
[15]
  Activity: Active
[16]
  Activity: Active
[17]
  Activity: Active
[18]
  Activity: Active
[19]
  Activity: Active
[20]
  Activity: Active
[21]
  Activity: Active
[22]
  Activity: Active
[23]
  Activity: Active
[24]
  Activity: Active
[25]
  Activity: Active
[26]
  Activity: inactive
[27]
  Activity: Active
